Source: ChEMBL document CHEMBL2074115, “Anthracyclines modulate multidrug resistance protein (MRP) mediated organic anion transport” (Biochim Biophys Acta, 1997)
Where a name gives a salt, the structure may show the parent alone. Blank lines part the entries; values can stand above or below the compound they belong to.

Tests used:
Parameters in all cases: scale not given: the % may be the effect or the level left
[1] = molecular target: T1, Multidrug resistance-associated protein 1 (Homo sapiens, UniProt P33527); assay: TP_TRANSPORTER: inhibition of DNP-SG uptake (DNP-SG: 0.01 uM, TLCAS: 10 uM) in membrane vesicles from GLC4/ADR cells; assay type: functional, cell membranes, Membrane vesicle; conditions: glc-4/adr
T1 sequence (P33527 whole entry): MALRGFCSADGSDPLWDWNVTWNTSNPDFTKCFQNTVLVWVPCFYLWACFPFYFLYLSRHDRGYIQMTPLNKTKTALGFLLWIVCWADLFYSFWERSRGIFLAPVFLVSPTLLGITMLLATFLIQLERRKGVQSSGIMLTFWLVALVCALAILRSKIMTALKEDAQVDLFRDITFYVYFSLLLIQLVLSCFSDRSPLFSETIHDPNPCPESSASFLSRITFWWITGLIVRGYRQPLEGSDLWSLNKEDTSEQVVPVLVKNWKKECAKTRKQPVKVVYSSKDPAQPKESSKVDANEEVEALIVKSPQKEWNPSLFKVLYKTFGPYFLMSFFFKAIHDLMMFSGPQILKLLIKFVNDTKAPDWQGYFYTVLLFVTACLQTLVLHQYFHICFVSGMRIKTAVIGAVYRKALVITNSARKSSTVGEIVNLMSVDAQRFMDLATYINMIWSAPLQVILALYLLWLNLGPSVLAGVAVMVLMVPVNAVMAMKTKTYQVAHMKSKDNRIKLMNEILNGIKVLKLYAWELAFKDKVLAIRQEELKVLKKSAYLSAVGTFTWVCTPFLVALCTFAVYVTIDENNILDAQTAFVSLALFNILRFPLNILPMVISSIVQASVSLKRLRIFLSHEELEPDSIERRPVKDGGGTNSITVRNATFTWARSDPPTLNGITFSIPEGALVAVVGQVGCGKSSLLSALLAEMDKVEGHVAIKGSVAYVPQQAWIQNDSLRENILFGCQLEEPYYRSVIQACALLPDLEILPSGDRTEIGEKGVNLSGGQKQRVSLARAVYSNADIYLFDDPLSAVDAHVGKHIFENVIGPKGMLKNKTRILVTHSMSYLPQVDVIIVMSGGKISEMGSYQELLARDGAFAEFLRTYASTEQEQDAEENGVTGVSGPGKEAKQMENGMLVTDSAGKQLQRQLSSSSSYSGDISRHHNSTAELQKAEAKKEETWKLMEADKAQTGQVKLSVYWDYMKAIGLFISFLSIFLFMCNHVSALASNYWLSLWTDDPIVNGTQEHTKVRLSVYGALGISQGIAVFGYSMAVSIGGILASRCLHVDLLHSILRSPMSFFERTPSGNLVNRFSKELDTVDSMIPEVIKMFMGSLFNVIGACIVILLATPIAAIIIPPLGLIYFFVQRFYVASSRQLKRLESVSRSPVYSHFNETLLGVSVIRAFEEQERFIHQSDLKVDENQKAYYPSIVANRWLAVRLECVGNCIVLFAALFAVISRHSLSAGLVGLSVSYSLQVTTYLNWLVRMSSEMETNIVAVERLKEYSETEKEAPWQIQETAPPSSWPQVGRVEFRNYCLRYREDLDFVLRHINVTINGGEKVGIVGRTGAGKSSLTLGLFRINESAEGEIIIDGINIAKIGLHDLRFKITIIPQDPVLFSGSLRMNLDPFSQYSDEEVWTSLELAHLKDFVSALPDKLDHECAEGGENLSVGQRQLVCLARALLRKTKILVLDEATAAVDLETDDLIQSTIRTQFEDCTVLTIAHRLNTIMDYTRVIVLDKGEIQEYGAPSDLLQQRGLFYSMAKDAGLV

[2] = molecular target: T2, Multidrug resistance-associated protein 1 (MRP1) (Homo sapiens, UniProt P33527); assay: TP_TRANSPORTER: inhibition of DNP-SG uptake (DNP-SG: 0.01 uM, TLC: 10 uM) in membrane vesicles from GLC4/ADR cells; assay type: functional, cell membranes, GLC-4/ADR, Membrane vesicle; conditions: probe DNP-SG, read-out: Activity
T2 sequence (P33527 whole entry): as above

[3] = molecular target: T2, Multidrug resistance-associated protein 1 (MRP1); assay: TP_TRANSPORTER: inhibition of DNP-SG uptake (DNP-SG: 0.01 uM, TCAS: 10 uM) in membrane vesicles from GLC4/ADR cells; assay type: functional, cell membranes, GLC-4/ADR, Membrane vesicle; conditions: probe DNP-SG, read-out: Activity
[4] = molecular target: T1, Multidrug resistance-associated protein 1; assay: TP_TRANSPORTER: inhibition of DNP-SG uptake (DNP-SG: 0.01 uM, Taxol: 10 uM) in membrane vesicles from GLC4/ADR cells; assay type: functional, cell membranes, Membrane vesicle; conditions: glc-4/adr
[5] = molecular target: T1, Multidrug resistance-associated protein 1; assay: TP_TRANSPORTER: inhibition of DNP-SG uptake (DNP-SG: 0.01 uM, ICG: 10 uM) in membrane vesicles from GLC4/ADR cells; assay type: functional, cell membranes, Membrane vesicle; conditions: glc-4/adr
[6] = molecular target: T2, Multidrug resistance-associated protein 1 (MRP1); assay: TP_TRANSPORTER: inhibition of DNP-SG uptake (DNP-SG: 0.01 uM, VP-16: 10 uM) in membrane vesicles from GLC4/ADR cells; assay type: functional, cell membranes, GLC-4/ADR, Membrane vesicle; conditions: probe DNP-SG, read-out: Activity
[7] = molecular target: T2, Multidrug resistance-associated protein 1 (MRP1); assay: TP_TRANSPORTER: inhibition of DNP-SG uptake (DNP-SG: 0.01 uM, Calcein: 500 uM) in membrane vesicles from GLC4/ADR cells; assay type: functional, cell membranes, GLC-4/ADR, Membrane vesicle; conditions: probe DNP-SG, read-out: Activity
[8] = molecular target: T2, Multidrug resistance-associated protein 1 (MRP1); assay: TP_TRANSPORTER: inhibition of DNP-SG uptake (DNP-SG: 0.01 uM, Idarbicin: 10 uM) in membrane vesicles from GLC4/ADR cells; assay type: functional, cell membranes, GLC-4/ADR, Membrane vesicle; conditions: probe DNP-SG, read-out: Activity
[9] = molecular target: T2, Multidrug resistance-associated protein 1 (MRP1); assay: TP_TRANSPORTER: inhibition of DNP-SG uptake (DNP-SG: 0.01 uM, Calcein-AM: 10 uM) in membrane vesicles from GLC4/ADR cells; assay type: functional, cell membranes, GLC-4/ADR, Membrane vesicle; conditions: probe DNP-SG, read-out: Activity
[10] = molecular target: T2, Multidrug resistance-associated protein 1 (MRP1); assay: TP_TRANSPORTER: inhibition of DNP-SG uptake (DNP-SG: 0.01 uM, MTX: 10 uM) in membrane vesicles from GLC4/ADR cells; assay type: functional, cell membranes, GLC-4/ADR, Membrane vesicle; conditions: probe DNP-SG, read-out: Activity

Compound: C[C@H](CCC(=O)NCCS(=O)(=O)O)C1CC[C@H]2[C@@H]3CC[C@@H]4C[C@H](OS(=O)(=O)O)CC[C@]4(C)[C@H]3CC[C@]12C (stereo not given in full)
Activity [1]: 11%

Compound: C[C@H](CCC(=O)NCCS(=O)(=O)O)[C@H]1CC[C@H]2[C@@H]3CC[C@@H]4C[C@H](O)CC[C@]4(C)[C@H]3CC[C@]12C [TAUROLITHOCHOLIC ACID]
activity at 10 µM [2]: 56%

Compound: C[C@H](CCC(=O)NCCS(=O)(=O)O)C1CC[C@H]2[C@@H]3[C@H](O)C[C@@H]4C[C@H](OS(=O)(=O)O)CC[C@]4(C)[C@H]3C[C@H](O)[C@]12C (stereo not given in full) [TAUROCHOLATE SULFATE]
activity at 10 µM [3]: 76%

Compound: CC(=O)[C@]1(O)Cc2c(O)c3c(c(O)c2[C@@H](O[C@H]2C[C@H](N)[C@H](O)[C@H](C)O2)C1)C(=O)c1ccccc1C3=O [IDARUBICIN]
activity at 10 µM [8]: 52%

Results, then the compound that gave them:

Activity [4]: 66%
Compound: CC(=O)O[C@H]1C(=O)[C@@]2(C)[C@H]([C@H](OC(=O)c3ccccc3)[C@]3(O)C[C@H](OC(=O)[C@H](O)[C@@H](NC(=O)c4ccccc4)c4ccccc4)C(C)=C1C3(C)C)[C@]1(OC(C)=O)CO[C@@H]1C[C@@H]2O [PACLITAXEL]

Activity [5]: 34%
Compound: CC1(C)C(/C=C/C=C/C=C/C=C2/N(CCCCS(=O)(=O)[O-])c3ccc4ccccc4c3C2(C)C)=[N+](CCCCS(=O)(=O)[O-])c2ccc3ccccc3c21.[Na+] [INDOCYANINE GREEN]

activity at 10 µM [6]: 50%
Compound: COc1cc([C@@H]2c3cc4c(cc3[C@@H](O[C@@H]3O[C@@H]5CO[C@@H](C)O[C@H]5[C@H](O)[C@H]3O)[C@H]3COC(=O)[C@H]23)OCO4)cc(OC)c1O [ETOPOSIDE]

activity at 500 µM [7]: 40%
Compound: O=C(O)CN(CC(=O)O)Cc1cc2c(cc1O)Oc1cc(O)c(CN(CC(=O)O)CC(=O)O)cc1C21OC(=O)c2ccccc21 [OFTASCEINE]

activity at 10 µM [9]: 44%
Compound: CC(=O)OCOC(=O)CN(CC(=O)OCOC(C)=O)Cc1c(OC(C)=O)ccc2c1Oc1c(ccc(OC(C)=O)c1CN(CC(=O)OCOC(C)=O)CC(=O)OCOC(C)=O)C21OC(=O)c2ccccc21

activity at 10 µM [10]: 82%
Compound: CN(Cc1cnc2nc(N)nc(N)c2n1)c1ccc(C(=O)N[C@@H](CCC(=O)O)C(=O)O)cc1 [METHOTREXATE]
